This is an account of results in patent US20240343740A1, “MACROCYCLIC GLUCAGON-LIKE PEPTIDE 1 RECEPTOR AGONISTS” (Eli Lilly and Company, priority 2021, published 2024).

For data set [1] the following is noted: cc_pd bond.
For data set [2] the following is noted: cc_pd bond, 14-membered ring, 110.0 °C, 15.0 h.
The target in data set [3] is T1, human GLP-1R (Homo sapiens, UniProt P43220). Description: GLP-1R CHO cell β-arrestin recruitment assay (PathHunter). As to conditions: for EC50: CHO-K1 cells expressing Pro-Link-tagged Human GLP-1R and enzyme-acceptor-tagged β-arrestin-2, read-out: EC50 nM (SEM, n), hGLP1R induced β-Arrestin-2 recruitment relative EC50; for Emax: CHO-K1 cells, % stimulation with DMSO and GLP-1(7-36) as minimum and maximum controls, read-out: Emax % (SEM, n), hGLP1R induced β-Arrestin-2 recruitment. It counts as cell-based. More on the design: host or cells: CHO-K1. As for the experimental part: GLP-1R CHO Cell β-Arrestin Recruitment Assay
Activated G-protein coupled receptors can interact with the β-arrestin family of signaling proteins. The potency of compounds for GLP-1R induced arrestin recruitment is determined using the PathHunter Enzyme Fragment Complementation approach substantially as described (von Degenfeld et al., FASEB J., 2007 (14):3819-26 and Hamdouchi et al., J. Med Chem., 2016 59(24):10891-10916). CHO-K1 cells expressing Pro-Link-tagged Human GLP-1R and enzyme-acceptor-tagged β-arrestin-2 may be obtained from DiscoveRx and prepared as assay-ready frozen cells. Test compounds are solubilized in DMSO and serial dilutions are performed using the Echo acoustic dispenser (LabCyte). Assay media is the PathHunter Cell Assay Buffer (DiscoveRx) containing 0.1% w/v hydrolyzed Casein (Sigma). 100 nL of test compound solution is dispensed into 10 μL of assay media in a 384 well plate and then 10 μL of cells in assay media are added to give 5000 cells per well. Plates are incubated for 90 min in a 37° C./5% CO2 incubator and 10 μL of PathHunter detection reagent is added (DiscoveRx) and plates are incubated at RT for 60 min. Luminescence signal is measured. Compound concentration-response curves fit to a four-parameter logistic model to calculate potency as an EC50 and percent top (Emax). Data normalization to % stimulation is performed using DMSO and GLP-1(7-36) as minimum and maximum controls (Campbell et al, Assay Guidance Manual 2017).
For orientation: Activated receptors often draw arrestin, which recruitment assays turn into a signal.
Target sequence in this assay (P43220 24-463): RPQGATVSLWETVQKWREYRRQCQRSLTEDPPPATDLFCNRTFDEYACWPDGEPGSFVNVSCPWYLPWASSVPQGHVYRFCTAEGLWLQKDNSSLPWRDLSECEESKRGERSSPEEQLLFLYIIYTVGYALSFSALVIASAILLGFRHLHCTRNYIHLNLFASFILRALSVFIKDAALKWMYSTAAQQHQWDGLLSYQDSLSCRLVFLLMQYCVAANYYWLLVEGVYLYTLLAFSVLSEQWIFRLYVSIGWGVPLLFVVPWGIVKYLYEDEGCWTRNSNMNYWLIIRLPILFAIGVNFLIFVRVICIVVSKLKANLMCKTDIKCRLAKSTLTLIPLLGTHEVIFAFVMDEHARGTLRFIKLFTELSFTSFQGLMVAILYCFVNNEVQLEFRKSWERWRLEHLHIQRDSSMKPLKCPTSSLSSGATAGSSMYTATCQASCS
Target sequence in this assay (P32121 whole entry partner, the tested form may be a part): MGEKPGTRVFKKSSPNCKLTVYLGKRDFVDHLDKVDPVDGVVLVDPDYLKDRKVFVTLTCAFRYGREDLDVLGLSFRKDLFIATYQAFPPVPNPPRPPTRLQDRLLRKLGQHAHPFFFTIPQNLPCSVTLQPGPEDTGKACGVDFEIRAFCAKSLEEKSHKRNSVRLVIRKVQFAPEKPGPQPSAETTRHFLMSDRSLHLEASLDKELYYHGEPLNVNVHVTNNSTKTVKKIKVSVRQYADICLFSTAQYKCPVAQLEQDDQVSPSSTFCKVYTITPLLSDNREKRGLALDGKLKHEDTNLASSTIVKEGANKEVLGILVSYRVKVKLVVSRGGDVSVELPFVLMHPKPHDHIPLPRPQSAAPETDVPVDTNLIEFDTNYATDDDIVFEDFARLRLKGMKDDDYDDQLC

Data set [4] concerns the target T1, human GLP-1R. Kind of data set: Human GLP-1 Receptor HEK293 cell cAMP assay, 581 fmol/mg GLP-1R expression density. As to conditions: HEK293 cell line with 581 fmol/mg expression density of GLP-1R; for EC50: geometric mean, read-out: EC50 nM (SEM, n), intracellular cAMP response, relative EC50; for Emax: percent of maximal response to GLP-1(7-36)NH2, arithmetic mean, read-out: Emax % (SEM, n), intracellular cAMP response. Further details: expressed in transfected cells; host or cells: HEK293 clonal cell line. It counts as cell-based. In a few lines: (§1)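 HEK293 clonal lines expressing human GLP-1R, 20-point compound curves, 30 min at 37° C in DMEM with 0.1% casein, 250 μM IBMX, 0.5% DMSO. cAMP by HTRF, converted via standard curve to % of maximal human GLP-1(7-36)NH2 response; relative EC50 and Emax from four-parameter logistic fit.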
A general note: Changes in cAMP serve as a functional read-out for many G protein-coupled receptors.
Target sequence in this assay (P43220 24-463): as the sequence (P43220 24-463) above

The target of data set [5] is T1, human GLP-1R. Description: Human GLP-1 Receptor HEK293 cell cAMP assay, 104 fmol/mg GLP-1R expression density. The following applies: HEK293 cell line with 104 fmol/mg expression density of GLP-1R; for EC50: geometric mean, read-out: EC50 nM (SEM, n), intracellular cAMP response, relative EC50; for Emax: percent of maximal response to GLP-1(7-36)NH2, arithmetic mean, read-out: Emax % (SEM, n), intracellular cAMP response. Type of data set: cell-based. More on the design: expressed in transfected cells; host or cells: HEK293 clonal cell line. An outline of the steps:
as §1
Target sequence in this assay (P43220 24-463): as above

The structures appear in SMILES notation. Where two headings read alike, the source gives them in different places.

Turning to `CCOC(=O)Cc1cc(F)c2cc1CCOc1cc(C#N)ccc1COc1cccc-2n1`, the ring closure, isolated yield in data set [1] (from CCOC(=O)Cc1cc(F)c(Br)cc1CCOc1cc(C#N)ccc1COc1cccc(Br)n1, 13-membered ring, Me6Sn2/Pd(dppf)Cl2, 1,4-dioxane, 50.0 mM, 100.0 °C, 3.0 h) was 41%.

Turning to `CCOC(=O)Cc1cc(F)c2cc1COCCc1cc(C#N)ccc1COc1ccc(F)c-2n1`, the ring closure, yield after HPLC in data set [2] (from CCOC(=O)Cc1cc(F)c(Br)cc1COCCc1cc(C#N)ccc1COc1ccc(F)c(Br)n1, XPhos Pd G3/Me3SnSnMe3/CsF, 1,4-dioxane, 11.4 mM) turned out to be 29%.

In data set [1] (from CCOC(=O)Cc1cc(F)c(Br)cc1COCCc1cc(Cl)cc(F)c1COc1cccc(Cl)n1, 14-membered ring, B2pin2/KOPiv/XPhos Pd G2, then K3PO4, THF/water, 24.0 mM, 55.0 °C, 6.0 h, 2 steps), `CCOC(=O)Cc1cc(F)c2cc1COCCc1cc(Cl)cc(F)c1COc1cccc-2n1` came in with a ring closure, isolated yield of 27%.

`CCOC(=O)Cc1cc(F)c2cc1COCc1cc(Cl)ccc1COc1cccc-2n1`: the ring closure, isolated yield in data set [1] (from CCOC(=O)Cc1cc(F)c(Br)cc1COCc1cc(Cl)ccc1COc1cccc(Cl)n1, 13-membered ring, B2neo2/KOPiv/XPhos Pd G2, then K3PO4, THF, then THF/water, 25.0 mM, 55.0 °C, 5.25 h, 2 steps) was 32%.

The molecule `CCOC(=O)Cc1cc(F)c2cc1OCCCc1cc(C#N)ccc1CNc1cccc-2n1` had a ring closure, isolated yield in data set [1] (from CCOC(=O)Cc1cc(F)c(B2OCC(C)(C)CO2)cc1OCCCc1cc(C#N)ccc1CNc1cccc(Br)n1, 14-membered ring, PdCl2(dtbpf)/K3PO4, 1,4-dioxane/water, 43.0 mM, 70.0 °C, 2.0 h) of 49%.

`CCOC(=O)Cc1cc(F)c2cc1OCCCc1cc(C#N)ccc1COc1cccc-2n1` yielded a ring closure, isolated yield in data set [1] (from CCOC(=O)Cc1cc(F)c(Br)cc1OCCCc1cc(C#N)ccc1COc1cccc(Br)n1, 14-membered ring, Me6Sn2/Pd(PPh3)4, 1,4-dioxane, 23.0 mM, 90.0 °C, 60.0 h) of 47%.

With `CCOC(=O)Cc1cc(F)c2cc1OCCCc1cc(C#N)cnc1COc1cccc-2n1`, the ring closure, isolated yield in data set [1] (from CCOC(=O)Cc1cc(F)c(Br)cc1OCCCc1cc(C#N)cnc1COc1cccc(Br)n1, 14-membered ring, Me6Sn2/CsF/XPhos Pd G2, 1,4-dioxane, 22.0 mM, 100.0 °C, 18.0 h) was determined as 49%.

In data set [1] (from CCOC(=O)Cc1cc(F)c(B2OC(C)(C)C(C)(C)O2)cc1OCCCc1cc(COc2cccc(Br)n2)ccc1C#N, 15-membered ring, PdCl2(dtbpf)/K3PO4, 1,4-dioxane/water, 27.0 mM, 50.0 °C, 0.25 h), `CCOC(=O)Cc1cc(F)c2cc1OCCCc1cc(ccc1C#N)COc1cccc-2n1` registered a ring closure, isolated yield of 38%.

With `CCOC(=O)Cc1cc(F)c2cc1OCCOc1cc(C#N)ccc1COc1cccc-2n1`, the ring closure, isolated yield in data set [1] (from CCOC(=O)Cc1cc(F)c(Br)cc1OCCOc1cc(C#N)ccc1COc1cccc(Br)n1, 14-membered ring, B2pin2/KOAc/Pd(dppf)Cl2, then PdCl2/XPhos/K3PO4, THF/water, 8.9 mM, 45.0 °C, 16.0 h, 2 steps) is 32%.

In data set [1] (from CCOC(=O)Cc1ccc(Br)cc1COCC(F)(F)c1cc(C#N)ccc1COc1cccc(Br)n1, 14-membered ring, B2pin2/KOAc/Pd(dppf)Cl2, then XPhos Pd G2/K3PO4, 1,4-dioxane/water, 55.0 mM, 60.0 °C, 2.0 h, 2 steps), `CCOC(=O)Cc1ccc2cc1COCC(F)(F)c1cc(C#N)ccc1COc1cccc-2n1` registered a ring closure, isolated yield of 21%.

In turn, `COC(=O)Cc1ccc2cc1COCCc1cc(C#N)ccc1COc1ccnc-2n1` gave a ring closure, isolated yield in data set [1] (from COC(=O)Cc1ccc(B2OC(C)(C)C(C)(C)O2)cc1COCCc1cc(C#N)ccc1COc1ccnc(Cl)n1, 14-membered ring, XPhos Pd G2/K3PO4, THF/water, 36.0 mM, 50.0 °C, 6.0 h) of 22%.

With `COC(=O)Cc1ccc2cc1COCCc1cc(ccc1C#N)COc1cccc-2n1`, the ring closure, isolated yield in data set [1] (from COC(=O)Cc1ccc(B2OC(C)(C)C(C)(C)O2)cc1COCCc1cc(COc2cccc(Cl)n2)ccc1C#N, 15-membered ring, XPhos Pd(crotyl)Cl/K3PO4, THF/water, 33.0 mM, 50.0 °C, 0.83 h) was found to be 61%.

`COC(=O)Cc1ccc2cc1OCCCc1cc(C#N)ccc1COc1cccc-2n1` showed a ring closure, isolated yield in data set [1] (from COC(=O)Cc1ccc(B2OC(C)(C)C(C)(C)O2)cc1OCCCc1cc(C#N)ccc1COc1cccc(Br)n1, 14-membered ring, XPhos Pd G2/K3PO4, THF/water, 57.0 mM, 45.0 °C, 2.25 h) of 82%.

In data set [1] (from COC(=O)Cc1ccc(B2OC(C)(C)C(C)(C)O2)cc1OCCCc1cc(Cl)ccc1COc1cccc(Br)n1, 14-membered ring, XPhos Pd G2/K3PO4, THF/water, 9.2 mM, 40.0 °C, 15.0 h), `COC(=O)Cc1ccc2cc1OCCCc1cc(Cl)ccc1COc1cccc-2n1` yielded a ring closure, isolated yield of 74%.

Regarding `FC(F)(F)c1cc2c(cn1)COc1cccc(n1)-c1ccc(Cl)c(c1)COCC2`, in data set [2] (from FC(F)(F)c1cc(CCOCc2cc(Br)ccc2Cl)c(COc2cccc(Br)n2)cn1, XPhos Pd G3), the ring closure, yield after HPLC was determined as 14%.

Usually EC50 stands for the concentration giving half of the maximal effect. One may read the Emax as the maximal effect, on the per cent scale that the assay sets. For the molecule `N#Cc1ccc2c(c1)CCCOc1cc(c(F)cc1Cc1nc3ccc(C(=O)O)cc3n1C[C@@H]1CCO1)-c1cccc(n1)OC2` [Example 1, (S)-2-((5^4-Cyano-1^6-fluoro-3,9-dioxa-2(2,6)-pyridina-1(1,3),5(1,2)-dibenzenacyclononaphane-1^4-yl)methyl)-1-(oxetan-2-ylmethyl)-1H-benzo[d]imidazole-6-carboxylic acid], the EC50 at human GLP-1R [3] came out at 213 nM; on human GLP-1R [4], 19.8 nM; on human GLP-1R [5] it was 59.7 nM. The Emax is 42.9% at human GLP-1R [3], 95% on human GLP-1R [4] and 71% on human GLP-1R [5].

For the molecule `N#Cc1ccc2c(c1)CCCOc1cc(c(F)cc1Cc1nc3c(F)cc(C(=O)O)cc3n1C[C@@H]1CCO1)-c1cccc(n1)OC2` [Example 2, (S)-2-((5^4-Cyano-1^6-fluoro-3,9-dioxa-2(2,6)-pyridina-1(1,3),5(1,2)-dibenzenacyclononaphane-1^4-yl)methyl)-4-fluoro-1-(oxetan-2-ylmethyl)-1H-benzo[d]imidazole-6-carboxylic acid], the EC50 on human GLP-1R [3] stood at 133 nM; on human GLP-1R [4], 8.05 nM; on human GLP-1R [5], 17.5 nM. The Emax at human GLP-1R [3] was 52.7%; on human GLP-1R [4], 98%; on human GLP-1R [5] it was 72%.

For `O=C(O)c1ccc2nc(Cc3ccc4cc3OCCCc3cc(Cl)ccc3COc3cccc-4n3)n(C[C@@H]3CCO3)c2c1` [Example 3, (S)-2-((5^4-Chloro-3,9-dioxa-2(2,6)-pyridina-1(1,3),5(1,2)-dibenzenacyclononaphane-1^4-yl)methyl)-1-(oxetan-2-ylmethyl)-1H-benzo[d]imidazole-6-carboxylic acid], the values for the EC50 at human GLP-1R [3], on human GLP-1R [4] and at human GLP-1R [5] were 320 nM, 44.1 nM and 132 nM, respectively. Further, the Emax on human GLP-1R [3] came to 34%; at human GLP-1R [4] it was 102%; at human GLP-1R [5], 84%.

As for `COc1cc(-c2nnn[nH]2)cc2c1nc(Cc1ccc3cc1OCCCc1cc(C#N)ccc1COc1cccc-3n1)n2C[C@@H]1CCO1` [Example 12, (S)-1^4-((4-Methoxy-1-(oxetan-2-ylmethyl)-6-(1H-tetrazol-5-yl)-1H-benzo[d]imidazol-2-yl)methyl)-3,9-dioxa-2(2,6)-pyridina-1(1,3),5(1,2)-dibenzenacyclononaphane-5^4-carbonitrile], the concentration giving a half-maximal response (EC50) was > 49500 nM at human GLP-1R [3], 20.2 nM on human GLP-1R [4] and 66.3 nM at human GLP-1R [5]. The maximal effect (Emax) was 9.47% on human GLP-1R [3], 81.8% at human GLP-1R [4] and 46.4% at human GLP-1R [5].
